In brackets after ≈: the same amount, converted by molar mass.
Assays:
[1] = physchem
Method: The solubility of glibenclamide was tested in various solutions and at various pH.

[2] = Glibenclamide solubility at various pH in PEG 300/ethanol/meglumine buffer (Table 2, FIG. 1); format: physicochemical; conditions: for solubility: aqueous with cosolvent or surfactant or cyclodextrin
Method: The solubility of glibenclamide was measured at various pH levels in the presence of different amounts of the buffer meglumine in solutions containing 40% PEG 300, 10% ethanol, and 50% water. […] The pH of the meglumine buffer was adjusted down from pH 11 to the target pH range of between about pH 8 to about pH 10.

[3] = pH after 50-fold dilution of glibenclamide 1 mg/ml concentrate into Hartmann's or NaCl; format: physicochemical; conditions: 1 mg/ml in PEG/Ethanol/Buffer (4/1/5)
Method: This was found even for experiments in which the concentration of buffer was reduced to 5 mM. In order to determine the final pH of diluted solutions resulting from high pH solutions having high concentrations of SUR-active compounds, measurements of the pH of glibenclamide solutions at various levels of dilution were made. […]

[4] = Precipitation on dilution of concentrated glibenclamide solutions; format: physicochemical
Method: This formulation may also include a buffer, such as meglumine or diethanolamine. This formulation may also include a surfactant; for example, this solution may include Tween 80 (e.g., less than about 1 ug/ml or less than about 1 ug/mg of glibenclamide). This formulation can be stored in a refrigerator (e.g., at about 2-8° C.) or can be stored at room temperature. This formulation is suitable for dilution; for example, it may be diluted 1:1, or 1:2 for use in bolus injections. This formulation may also be diluted by larger amounts of diluent, to 1:50 for example, for administration of glibenclamide as an infusion over an extended period of time. Dilution with a buffered solution allows the reduction of the solution pH to physiological levels without causing precipitation of glibenclamide. […] Experiments investigating the effect of dilution of relatively high concentrations of SUR-active compounds were performed. […] These solutions were diluted as follows with each of these diluents (0.9% NaCl and 5% glucose solutions): 1 in 2; 1 in 4; 1 in 5; 1 in 10; 1 in 20; and 1 in 50.

[5] = Stability of glibenclamide injection formulations on storage; format: physicochemical; conditions: formulation with 5 mM meglumine at pH 9
Method: Glibenclamide stability was investigated by storing several formulations under different conditions for long periods of time. In particular, glibenclamide formulations suitable for injection were stored for up to six months and stability data for these formulations was obtained over that period of time.
This study assessed the relative stability of 4 batches of glibenclamide formulations suitable for injection. The following studies were conducted.
All storage cabinets were continually monitored for temperature and humidity using calibrated probes. After removal from long-term storage, all samples were stored at 2-8° C. protected from light while awaiting analysis.
At each time point, 2 vials of glibenclamide injections will be removed from the storage cabinet from the appropriate conditions and allowed to equilibrate to ambient temperature. This will be used to perform the analyses described above and will be stored under normal laboratory conditions throughout the duration of the analyses.
The formulations were inspected visually for appearance and for the presence of particulates. The pH of duplicate samples from separate vials was measured to determine formulation pH and to track changes, if any, over the course of time during the stability experiments.

Structure (SMILES): COc1ccc(Cl)cc1C(=O)NCCc1ccc(S(=O)(=O)NC(=O)NC2CCCCC2)cc1 [Glibenclamide, N-p-(2-[5-Chloro-2-methoxybenzamido]ethyl) benzenesulfonyl-N′-cyclohexylurea]
- solubility ([1]; pH 5.3, aqueous buffer, Solubility): 10 µg/mL (≈ 20.2 µM)
- solubility ([1]; pH 6.2, aqueous buffer, Solubility): 10 µg/mL (≈ 20.2 µM)
- solubility ([1]; pH 6.6, water, Solubility): 70 µg/mL (≈ 142 µM)
- solubility ([1]; pH 6.9): 60 µg/mL (≈ 121 µM)
- solubility ([1]; pH 6.9, aqueous with cosolvent or surfactant or cyclodextrin, Solubility): 90 µg/mL (≈ 182 µM)
- solubility ([1]; pH 7.1, aqueous buffer, Solubility): 10 µg/mL (≈ 20.2 µM)
- solubility ([1]; pH 7.2, aqueous with cosolvent or surfactant or cyclodextrin, Solubility): 80 µg/mL (≈ 162 µM)
- solubility ([1]; pH 7.6, aqueous with cosolvent or surfactant or cyclodextrin, Solubility): 600 µg/mL (≈ 1210 µM)
- solubility ([1]; pH 7.7, aqueous with cosolvent or surfactant or cyclodextrin, Solubility): 10 µg/mL (≈ 20.2 µM)
- solubility ([1]; pH 9.7): 860 µg/mL (≈ 1740 µM)
- solubility ([1]; pH 9.7, aqueous buffer, Solubility): 860 µg/mL (≈ 1740 µM)
- solubility ([1]; pH 9.7, aqueous with cosolvent or surfactant or cyclodextrin, Solubility): 18300 µg/mL (≈ 37000 µM)
- solubility ([1]; pH 9.8): 11200 µg/mL (≈ 22700 µM)
- solubility ([1]; pH 9.8, aqueous with cosolvent or surfactant or cyclodextrin, Solubility): 14600 µg/mL (≈ 29700 µM)
- solubility ([1]; pH 10.1): 2350 µg/mL (≈ 4760 µM)
- solubility ([1]; pH 10.1, aqueous buffer, Solubility): 2350 µg/mL (≈ 4760 µM)
- solubility ([1]; pH 10.5): 15650 µg/mL (≈ 31700 µM)
- solubility ([1]; pH 10.5, aqueous with cosolvent or surfactant or cyclodextrin, Solubility): 13400 µg/mL (≈ 27200 µM)
- solubility ([1]; pH 10.7, aqueous buffer, Solubility): 8120 µg/mL (≈ 16400 µM)
- solubility ([1]; pH 10.7, aqueous with cosolvent or surfactant or cyclodextrin, Solubility): 13900 µg/mL (≈ 28200 µM)
- solubility change with pH (FIG. 1) ([2]; 40% PEG 300, 10% ethanol, 50% water, meglumine buffer, basic pH values greater than about pH 8): greatly increased
- solubility ([2]; PEG 300/ethanol/meglumine buffer solution, PEG 300/Ethanol/20 mM Meglumine 40%/10%/50% (final 10 mM), nominal pH 8.5, actual pH 5.4): 100 µg/mL (≈ 202 µM)
- solubility ([2]; PEG 300/ethanol/meglumine buffer solution, PEG 300/Ethanol/20 mM Meglumine 40%/10%/50% (final 10 mM), nominal pH 9.0, actual pH 5.6): 130 µg/mL (≈ 263 µM)
- solubility ([2]; PEG 300/ethanol/meglumine buffer solution, PEG 300/Ethanol/20 mM Meglumine 40%/10%/50% (final 10 mM), nominal pH 9.5, actual pH 6.4): 120 µg/mL (≈ 243 µM)
- solubility ([2]; PEG 300/ethanol/meglumine buffer solution, PEG 300/Ethanol/100 mM Meglumine 40%/10%/50% (final 50 mM), nominal pH 9.5, actual pH 7.7): 410 µg/mL (≈ 830 µM)
- solubility ([2]; PEG 300/ethanol/meglumine buffer solution, PEG 300/Ethanol/100 mM Meglumine 40%/10%/50% (final 50 mM), nominal pH 10.0, actual pH 8.8): 2740 µg/mL (≈ 5550 µM)
- solubility ([2]; 40% PEG 300, 10% ethanol, 50% water with meglumine buffer, nominal pH 9 (pH 8.8)): 2700 µg/mL (≈ 5470 µM)
- solubility ([2]; PEG 300/Ethanol/20 mM Meglumine 40%/10%/50% (final 10 mM), nominal pH 10.0, actual pH 6.9): 980 µg/mL (≈ 1980 µM)
- solubility ([2]; PEG 300/Ethanol/50 mM Meglumine 40%/10%/50% (final 25 mM), nominal pH 8.0, actual pH 5.2): 160 µg/mL (≈ 324 µM)
- solubility ([2]; PEG 300/Ethanol/50 mM Meglumine 40%/10%/50% (final 25 mM), nominal pH 9.5, actual pH 6.6): 90 µg/mL (≈ 182 µM)
- solubility ([2]; PEG 300/Ethanol/50 mM Meglumine 40%/10%/50% (final 25 mM), nominal pH 10.0, actual pH 7.8): 360 µg/mL (≈ 729 µM)
- solubility ([2]; PEG 300/Ethanol/100 mM Meglumine 40%/10%/50% (final 50 mM), nominal pH 8.0, actual pH 5.3): 90 µg/mL (≈ 182 µM)
- solubility ([2]; PEG 300/Ethanol/100 mM Meglumine 40%/10%/50% (final 50 mM), nominal pH 8.5, actual pH 5.5): 100 µg/mL (≈ 202 µM)
- solubility ([2]; PEG 300/Ethanol/100 mM Meglumine 40%/10%/50% (final 50 mM), nominal pH 9.0, actual pH 6.2): 100 µg/mL (≈ 202 µM)
- pH after a 50-fold Dilution ([3]; Diethanolamine 5 mM pH 8, into Hartmann's pH 6.48 (Expt1)): 6.71
- pH after a 50-fold Dilution ([3]; Diethanolamine 5 mM pH 8, into Hartmann's pH 6.60): 7.99
- pH after a 50-fold Dilution ([3]; Diethanolamine 5 mM pH 8, into NaCl pH 4.59): 7.27
- pH after a 50-fold Dilution ([3]; Diethanolamine 5 mM pH 8, into NaCl pH 6.82): 8.32
- pH after a 50-fold Dilution ([3]; Diethanolamine 5 mM pH 8.5, into Hartmann's pH 6.48, Expt 2): 6.82
- pH after a 50-fold Dilution ([3]; Diethanolamine 5 mM pH 9, into Hartmann's pH 6.48 (Expt1)): 7.54
- pH after a 50-fold Dilution ([3]; Diethanolamine 5 mM pH 9, into Hartmann's pH 6.48, Expt 2): 7.29
- pH after a 50-fold Dilution ([3]; Diethanolamine 5 mM pH 9, into NaCl pH 6.82): 8.65
- pH after a 50-fold Dilution ([3]; Diethanolamine 5 mM pH 9.5, into Hartmann's pH 6.48 (Expt1)): 6.73
- pH after a 50-fold Dilution ([3]; Diethanolamine 5 mM pH 9.5, into Hartmann's pH 6.48, Expt 2): 8.37
- pH after a 50-fold Dilution ([3]; Diethanolamine 5 mM pH 9.5, into Hartmann's pH 6.60): 8.85
- pH after a 50-fold Dilution ([3]; Diethanolamine 5 mM pH 9.5, into NaCl pH 4.59): 8.72
- pH after a 50-fold Dilution ([3]; Diethanolamine 5 mM pH 9.5, into NaCl pH 6.82): 8.88
- pH after a 50-fold Dilution ([3]; Diethanolamine 5 mM pH 10, into Hartmann's pH 6.48): 8.46
- pH after a 50-fold Dilution ([3]; Diethanolamine 10 mM pH 9, into Hartmann's pH 6.48): 8.38
- pH after a 50-fold Dilution ([3]; Diethanolamine 10 mM pH 9, into NaCl pH 4.59): 8.46
- pH after a 50-fold Dilution ([3]; Diethanolamine 10 mM pH 10, into Hartmann's pH 6.48): 8.88
- pH after a 50-fold Dilution ([3]; Diethanolamine 10 mM pH 10, into NaCl pH 6.82): 9.31
- pH after a 50-fold Dilution ([3]; Meglumine 5 mM pH 8, into Hartmann's pH 6.48 (Expt1)): 6.66
- pH after a 50-fold Dilution ([3]; Meglumine 5 mM pH 8, into Hartmann's pH 6.60): 6.55
- pH after a 50-fold Dilution ([3]; Meglumine 5 mM pH 8, into NaCl pH 4.59): 6.56
- pH after a 50-fold Dilution ([3]; Meglumine 5 mM pH 8, into NaCl pH 6.82): 8.21
- pH after a 50-fold Dilution ([3]; Meglumine 5 mM pH 8.5, into Hartmann's pH 6.48, Expt 2): 6.64
- pH after a 50-fold Dilution ([3]; Meglumine 5 mM pH 9, into Hartmann's pH 6.48 (Expt1)): 6.8
- pH after a 50-fold Dilution ([3]; Meglumine 5 mM pH 9, into Hartmann's pH 6.48, Expt 2): 6.96
- pH after a 50-fold Dilution ([3]; Meglumine 5 mM pH 9, into NaCl pH 6.82): 8.40
- pH after a 50-fold Dilution ([3]; Meglumine 5 mM pH 9.5, into Hartmann's pH 6.48 (Expt1)): 6.93
- pH after a 50-fold Dilution ([3]; Meglumine 5 mM pH 9.5, into Hartmann's pH 6.48, Expt 2): 7.68
- pH after a 50-fold Dilution ([3]; Meglumine 5 mM pH 9.5, into Hartmann's pH 6.60): 8.49
- pH after a 50-fold Dilution ([3]; Meglumine 5 mM pH 9.5, into NaCl pH 4.59): 8.04
- pH after a 50-fold Dilution ([3]; Meglumine 5 mM pH 9.5, into NaCl pH 6.82): 8.71
- pH after a 50-fold Dilution ([3]; Meglumine 5 mM pH 10, into Hartmann's pH 6.48): 8.32
- pH after a 50-fold Dilution ([3]; Meglumine 10 mM pH 9, into Hartmann's pH 6.48): 7.37
- pH after a 50-fold Dilution ([3]; Meglumine 10 mM pH 9, into NaCl pH 4.59): 6.35
- pH after a 50-fold Dilution ([3]; Meglumine 10 mM pH 10, into Hartmann's pH 6.48): 8.98
- pH after a 50-fold Dilution ([3]; Meglumine 10 mM pH 10, into NaCl pH 6.82): 9.54
- precipitation on dilution ([4]; 2 mg/ml in 100 mM meglumine buffer with 0.9% NaCl or 5% glucose, diluted 1 in 2, 4, 5, 10, 20 and 50 with these diluents): no precipitation
- behaviour of drug during and following dilution ([4]; Example 1 formulation (40% PEG 300, 10% Ethanol, 50% water, about pH 9, 1 mg/ml) diluted 1:50 with Hartman's solution): remained in solution
- hydrolysis on storage ([5]; refrigerated samples stored at 2-8° C., FIG. 3A): hydrolysis was not seen
- physical stability (drug in solution) on storage ([5]; stored at 2-8° C.): remained in solution
- hydrolysis on storage ([5]; stored at elevated temperatures (25° C./60% RH, 40° C./75% RH), FIGS. 3B, 3C): some hydrolysis

Reference: US10688111B2, “Liquid formulations of compounds active at sulfonylurea receptors” (Biogen Chesapeake LLC, priority 2008, dated 2020)
